The record followed here is patent US20240216410A1, “METHODS AND COMPOSITIONS FOR TREATING CANCER THERAPY-INDUCED NEUTROPENIC FEVER AND/OR GVHD” (BOARD OF REGENTS, THE UNIVERSITY OF TEXAS SYSTEM, priority 2021, published 2024).

In data set [1] the test system is A. muciniphila strain (MDA-JAX AM001). Kind of data set: Growth of A. muciniphila in BYEM10+ mucin medium (OD600 nm up to 48 hrs). Type of data set: cell-based, Akkermansia muciniphila. The protocol:
SCFAs were added in 10 and 20 mM final concentration to bacterial culture. Growth of the bacteria at 37° C. in BYEM10+ mucin medium was read at OD600 nm continuously up to 48 hrs. Control Akkermansia culture was grown in absence of compounds.
Using a high-throughput screening strategy analyzing ˜1800 compounds, various other natural compounds in addition to SCFAs were identified for their potential to delay and/or suppress growth of MDA-JAX AM001. […] Growth of the bacteria at 37° C. in BYEM10+ mucin medium was read at OD600 nm continuously up to 48 hrs. Control Akkermansia culture was grown in absence of compounds.
Several active ruminal metabolites were also tested for their ability to delay and/or suppress growth of MDA-JAX AM001. Compounds were selected based on initial testing of Akkermansia growth in medium containing 1× to 3× concentrated ruminal fluid, followed by analysis of metabolite content by MALDI-TOF mass-spectrometry. Ruminal metabolite compounds tested included Malic acid (2 mM and 5.6 mM), 3-Indole acetic acid (5.6 mM and 8.6 mM), Hydrocinnamic acid (2.66 mM and 3.99 mM), Methylmalonic acid (8.4 mM and 10.6 mM), Glucoranic acid (16.8 mM), Galacturonic acid (14 mM), and Bis-hydroxy methyl propionic acid (22 mM). These ruminal metabolite compounds have also been found in human stool, as analyzed by MALDI-TOF mass spectrometry. […] Growth of the bacteria at 37° C. in BYEM10+ mucin medium was read at OD600 nm continuously up to 48 hrs. Control Akkermansia culture was grown in absence of compounds.

The subject of data set [2] is A. muciniphila (MDA-JAX AM001). The following applies: for mucin glycan utilization by A. muciniphila: physiological concentrations, varying pH, 48 hours of culture.
Protocol: The impact of DR-induced metabolic changes in the colonic lumen on A. muciniphila behavior was also studied using an in vitro mucin glycan consumption assay. A novel A. muciniphila (MDA-JAX AM001) strain was isolated from the feces of C57BL6 mice and introduced to liquid media supplemented with PGM, and the effects of varying pH either alone or combined with the presence of physiological concentrations of acetate, propionate, and butyrate were evaluated.
Data set [3] relates to Akkermansia.
Data set [4] concerns Akkermansia. The data set is described as follows: Total body radiotherapy (9 Gy RT) mice treated with azithromycin or propionate. The data set is classed as in vivo. The following applies: for colonic mucus layer thickness: 9 Gy total body RT; for colonic tissue levels of IL-1b, CCL2, CCL7, IL-22, CXCL1 and CXCL10 / ocular surface temperatures (hypothermia) / outgrowth of Akkermansia: day 6 after RT; for outgrowth of Akkermansia: 16S rRNA gene sequencing. The protocol: C57BL/6 mice were exposed to a single myeloablative dose of total body radiotherapy (9 Gy RT), and stool samples were evaluated 6 days later by 16S rRNA gene sequencing. […] Colonic tissue samples were cut cross-sectionally and mucus layer thickness was averaged across 8 equally-spaced circumferential sites (FIG. 7) to evaluate whether the dense colonic mucus layer, which normally separates bacteria-rich luminal contents from the colonic epithelium, was affected by irradiation in mice.
Additionally, ocular surface temperatures were non-invasively measured in mice using a published method (16) because in contrast to humans, mice are develop hypothermia in response to exposure to inflammatory ligands such as LPS (17) and in models of sepsis (18).
The degree of inflammation in colonic tissue was directed measured by quantifying levels of a panel of cytokines (FIG. 5C).

The subject of data set [5] is Akkermansia. The data set is described as follows: Dietary restriction in mice with narrow-spectrum antibiotics in the drinking water. As to conditions: antibiotic in drinking water from 5 days prior to dietary restriction. The data set is classed as in vivo. The text has this:
Diet is a major determinant of intestinal microbiome composition, and the indirect impact of RT on microbiome composition due to a reduction in intake of food in mice was investigated. Mice were individually housed in metabolic cages following RT to quantify effects of RT on food and water intake. Within 2 days following RT, mice had reduced their oral intake to approximately 2 grams a day, or a 50% reduction (FIG. 3A). To evaluate whether dietary restriction (DR) could impact intestinal microbiome composition and the colonic mucus layer, normal, un-irradiated mice were limited 2 grams of chow per mouse per day for 7 days.
Because commercially-available mice lacking Akkermansia are not easy to find (12), narrow-spectrum antibiotics were used to evaluate the specific contribution of Akkermansia to mucus thinning during DR.

For data set [6] the following is noted: human, in vivo.
Protocol: In this study, data from 295 patients with acute myeloid leukemia (AML) or myelodysplastic syndrome (MDS) who underwent allo-HSCT with tacrolimus and methotrexate as GVHD prophylaxis following conditioning therapy with fludarabine and 5 busulfan from 2011 to 2016 were retrospectively examined. The incidence of acute intestinal GVHD until day 100 after transplant was evaluated and compared were patients who received neither cefepime nor meropenem, those who received cefepime alone, those who received meropenem alone, and those who received both cefepime and meropenem during the period from days −10 to 30 relative to allo-HSCT infusion.
Retrospective study design. 295 patients with acute myeloid leukemia (AML) or myelodysplastic syndrome (MDS) underwent allogeneic hematopoietic stem cell transplantation (allo-HSCT) with fludarabine plus busulfan as conditioning therapy and tacrolimus and methotrexate as GVHD prophylaxis from 2011 and 2016 and were analyzed retrospectively. Patients were classified by antibiotic exposures, including those who received neither cefepime nor meropenem, those who received cefepime alone, those who received meropenem alone and those who received both cefepime and meropenem from day −10 to day 30 after allo-HSCT. Acute GVHD was diagnosed by clinical and/or pathological findings, and graded according to standard criteria (56).
A short description of data set [7]: Melphalan therapy in mice: intestinal microbiome and colonic mucus layer. The data set is classed as in vivo. As to conditions: 6 days following melphalan 20 mg/kg, C57BL/6 mice. The text has this: Myeloablative RT, previously a foundational pillar that made HCT possible, has been progressively replaced by chemotherapy, particularly alkylating agents (11). […] An expansion of Bacteroides was also seen, though this was not statistically significant after correction for multiple comparisons, and was accompanied by a loss of Muribaculaceae, similar to that following RT.

Where [8] appears, read: Malic acid 2 and 5.6 mM, 3-Indole acetic acid 5.6 and 8.6 mM, Hydrocinnamic acid 2.66 and 3.99 mM, Methylmalonic acid 8.4 and 10.6 mM, Glucoranic acid 16.8 mM, Galacturonic acid 14 mM, Bis-hydroxy methyl propionic acid 22 mM.
The mark [9] stands for this setting: Brucine 2.5 and 5 mM, Methyl-β-D-galactopyranoside 14 mM, Resacetophenone 3.3 and 5 mM, Serotonin 4.7 and 7.1 mM.
The mark [10] stands for this setting: acidified drinking water (pH3), one week dietary restriction.
[11] abbreviates: 10 mM and 20 mM, vs mucin-only control, 37° C.
[12] abbreviates: drinking water at neutral pH, dietary restriction.

Like-named read-outs stand apart in the source and are kept apart here.

As for `O=C(O)Cc1c[nH]c2ccccc12` [3-Indole acetic acid], the “growth of MDA-JAX AM001” value in data set [1] (setting [8]) was “delay and inhibit MDA-JAX AM001 growth”.

For `CC(CO)(CO)C(=O)O` [Bis-hydroxy methyl propionic acid], the “growth of MDA-JAX AM001” value in data set [1] (setting [8]) was “delay and inhibit MDA-JAX AM001 growth”.

As to `COc1cc2c(cc1OC)[C@@]13CCN4CC5=CCO[C@H]6CC(=O)N2[C@H]1[C@H]6[C@H]5C[C@H]43` [Brucine], in data set [1] (setting [9]), the “growth of MDA-JAX AM001” value is “delay and suppress the growth of MDA-JAX AM001”.

With `O=C[C@H](O)[C@@H](O)[C@@H](O)[C@H](O)C(=O)O` [Galacturonic acid], the “growth of MDA-JAX AM001” value in data set [1] (setting [8]) is “delay and inhibit MDA-JAX AM001 growth”.

For the compound `O=C(O)CCc1ccccc1` [Hydrocinnamic acid], the “growth of MDA-JAX AM001” value in data set [1] (setting [8]) was “delay and inhibit MDA-JAX AM001 growth”.

For the compound `O=C(O)CC(O)C(=O)O` (stereo not drawn) [Malic acid], the “growth of MDA-JAX AM001” value in data set [1] (setting [8]) was “delay and inhibit MDA-JAX AM001 growth”.

Turning to `CO[C@@H]1O[C@H](CO)[C@H](O)[C@H](O)[C@H]1O` [Methyl-β-D-galactopyranoside], the “growth of MDA-JAX AM001” value in data set [1] (setting [9]) is “delay and suppress the growth of MDA-JAX AM001”.

Turning to `CC(C(=O)O)C(=O)O` [Methylmalonic acid], the “growth of MDA-JAX AM001” value in data set [1] (setting [8]) is “delay and inhibit MDA-JAX AM001 growth”.

With `CC(=O)c1ccc(O)cc1O` [Resacetophenone], in data set [1] (setting [9]), the “growth of MDA-JAX AM001” value is “delay and suppress the growth of MDA-JAX AM001”.

With `NCCc1c[nH]c2ccc(O)cc12` [Serotonin], the “growth of MDA-JAX AM001” value in data set [1] (setting [9]) was “delay and suppress the growth of MDA-JAX AM001”.

Take `CC(=O)[O-].[Na+]` [acetate, sodium acetate]: the “mucin glycan utilization by A. muciniphila” value (“mucin glycan utilization” below) in data set [2] is listed as “negligible effects on A. muciniphila behavior”. Further, in the data set with Akkermansia [3] (setting [10]), the “expansion of Akkermansia” value is reported as “no such preventative effect”, the “fecal / colonic luminal pH” value was “lowering the pH in the colonic lumen” and the “thinning of the colonic mucus layer” value was “no such preventative effect”.

With `CC[C@H]1OC(=O)[C@H](C)[C@@H](O[C@H]2C[C@@](C)(OC)[C@@H](O)[C@H](C)O2)[C@H](C)[C@@H](O[C@@H]2O[C@H](C)C[C@H](N(C)C)[C@H]2O)[C@](C)(O)C[C@@H](C)CN(C)[C@H](C)[C@@H](O)[C@]1(C)O` [azithromycin], in the data set with Akkermansia [4], the “colonic mucus layer thickness” value is “effective in preserving colonic mucus layer thickness”; the “colonic tissue levels of IL-1b, CCL2, CCL7, IL-22, CXCL1 and CXCL10” value was “reduced”; the “ocular surface temperatures (hypothermia)” value is recorded as “less depressed at day 6”; the “outgrowth of Akkermansia” value is reported as “very effective at preventing outgrowth of Akkermansia”. Further, in the data set on Akkermansia [5], the bacterial populations depleted entry is “depleted Akkermansia as well as some gram positive populations” and the “colonic mucus layer thinning during dietary restriction” value is reported as “prevented thinning of the colonic mucus layer”.

For `CCCC(=O)[O-].[Na+]` [butyrate, sodium butyrate], the “mucin glycan utilization” value in data set [2] is on record as “negligible effects on A. muciniphila behavior”.

For the compound `CO/N=C(\C(=O)N[C@@H]1C(=O)N2C(C(=O)[O-])=C(C[N+]3(C)CCCC3)CS[C@H]12)c1csc(N)n1` [cefepime], in data set [6], the “Acute GVHD Grade 0, number of patients” value worked out at 57; the “Acute GVHD Grade 0, percentage of patients” value was “(46%)”; the “Acute GVHD Grade I, number of patients” value is on record as 26; the “Acute GVHD Grade I, percentage of patients” value is “(21%)”. In data set [6], the “Acute GVHD Grade II, number of patients” value is given as 34 and the “Acute GVHD Grade II, percentage of patients” value is listed as “(27%)”. Moreover, in data set [6] (iv), the “Acute GVHD Grade III-IV, number of patients” value stood at 7 and the “Acute GVHD Grade III-IV, percentage of patients” value was “(6%)”.

Consider `CC(C)CC(=O)O` [isovalerate], for which, in data set [1] (setting [11]), the “growth of MDA-JAX AM001” value is given as “suppress and/or delay MDA-JAX AM001 growth”.

In the case of `N[C@@H](Cc1ccc(N(CCCl)CCCl)cc1)C(=O)O` [melphalan], in data set [7], the “changes in the intestinal microbiome” value is recorded as “increase in the abundance of Akkermansia” and the “colonic mucus layer thickness” value is recorded as “significantly thinner”.

For `CCC(=O)[O-].[Na+]` [propionate, sodium propionate], the “growth of A. muciniphila” value in data set [2] (higher levels, OD 600) is recorded as “delays in growth”. Moreover, the “mucin glycan utilization” value in data set [2] is on record as “inhibitory effects on mucin glycan utilization”. Moreover, in the data set with Akkermansia [4], the “colonic mucus layer thickness” value is reported as “effective in preserving colonic mucus layer thickness”; the “colonic tissue levels of IL-1b, CCL2, CCL7, IL-22, CXCL1 and CXCL10” value was “prevented elevation of all of these cytokines, with the exception of CXCL1”; the “ocular surface temperatures (hypothermia)” value is on record as “less depressed at day 6”; the “outgrowth of Akkermansia” value was “not effective”. For the same compound, in the data set with Akkermansia [3] (setting [10]), the “expansion of Akkermansia” value was “mitigated expansion of Akkermansia”, the “fecal / colonic luminal pH” value is on record as “reduced fecal pH” and the “thinning of the colonic mucus layer” value is listed as “prevented thinning of the mucus layer”. In addition, in the data set on Akkermansia [3] (setting [12]), the “expansion of Akkermansia” value is reported as “trended towards preventing Akkermansia expansion” and the “thinning of the colonic mucus layer” value was “sufficient to prevent mucus thinning”.

In the case of `[H]/N=C(/N)N[C@H]1[C@H](O)[C@@H](O)[C@H](O[C@@H]2O[C@@H](C)[C@](O)(C=O)[C@H]2O[C@@H]2O[C@@H](CO)[C@H](O)[C@@H](O)[C@@H]2NC)[C@@H](N/C(N)=N\[H])[C@@H]1O` [streptomycin], in the data set with Akkermansia [5], the bacterial populations depleted entry was “depleted certain gram-positive bacteria” and the “colonic mucus layer thinning during dietary restriction” value was “Neither streptomycin nor vancomycin had a significant effect on mucus barrier loss”.

Regarding `CCCCC(=O)O` [valerate], the “growth of MDA-JAX AM001” value in data set [1] (setting [11]) is recorded as “suppress and/or delay MDA-JAX AM001 growth”.

For the compound `CN[C@H](CC(C)C)C(=O)N[C@H]1C(=O)N[C@@H](CC(N)=O)C(=O)N[C@H]2C(=O)N[C@H]3C(=O)N[C@H](C(=O)N[C@H](C(=O)O)c4cc(O)cc(O)c4-c4cc3ccc4O)[C@H](O)c3ccc(c(Cl)c3)Oc3cc2cc(c3O[C@@H]2O[C@H](CO)[C@@H](O)[C@H](O)[C@H]2O[C@H]2C[C@](C)(N)[C@H](O)[C@H](C)O2)Oc2ccc(cc2Cl)[C@H]1O` [vancomycin], in the data set on Akkermansia [5], the bacterial populations depleted result is “depleted both gram-positive bacteria and some Bacteroidetes”; the “colonic mucus layer thinning during dietary restriction” value is reported as “Neither streptomycin nor vancomycin had a significant effect on mucus barrier loss”.
